Like-named read-outs stand apart in the source and are kept apart here. Starred links: 1 amine or outer side, 2 acyl side, 3 side chain; linkers in the order of their positions; H or OH if unused. Non-standard residues stand in square brackets, D forms with d. Residues, ends and D or L forms follow the SMILES beside them. *: point of attachment. azaTyr = O=C(N(Cc1ccc(O)cc1)N[*:1])[*:2]; azaLeu = CC(C)CN(N[*:1])C(=O)[*:2]; Hydrocinnamoyl = O=C(CCc1ccccc1)*
Experiments:
CD36 = CD36 (Rattus norvegicus (Rat), UniProt Q07969); experiment: CD36 receptor covalent photolabelling binding assay, competition with [125I]Tyr-Bpa-Ala-hexarelin on rat cardiac membranes; details: for binding activity/affinity at CD36 in words: compared with parent peptide GHRP-6 or hexarelin
CD36, sequence (Q07969 whole entry): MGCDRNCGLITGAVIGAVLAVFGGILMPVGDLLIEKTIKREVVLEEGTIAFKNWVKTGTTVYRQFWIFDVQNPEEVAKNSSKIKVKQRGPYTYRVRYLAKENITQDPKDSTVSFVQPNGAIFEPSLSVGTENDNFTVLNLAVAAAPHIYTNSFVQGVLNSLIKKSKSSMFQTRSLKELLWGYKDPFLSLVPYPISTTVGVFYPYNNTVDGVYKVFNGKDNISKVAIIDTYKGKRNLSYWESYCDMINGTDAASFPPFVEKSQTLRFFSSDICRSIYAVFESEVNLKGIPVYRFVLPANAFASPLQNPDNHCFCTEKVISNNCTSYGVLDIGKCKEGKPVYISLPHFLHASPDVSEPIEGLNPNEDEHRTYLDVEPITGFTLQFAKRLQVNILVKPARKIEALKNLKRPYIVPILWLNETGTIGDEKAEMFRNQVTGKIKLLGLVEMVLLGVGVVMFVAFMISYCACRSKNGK
Procedure: The hearts from Sprague Dawley rats (300 g-325 g) from Charles River, used as a source of cardiac membranes, were prepared as follows: the heart was washed with ice-cold saline, and fatty and connective tissue was removed. The tissue was cut into small pieces with scissors and placed in a Sorvall centrifuge tube containing 5 ml/g of fresh tissue of Buffer A (10 mM NaHCO3, 5 mM NaN3, 10 μM Pefabloc, 0.1 μM Aprotinin, 1 μM Pepstatin A, 1 μM Leupeptin, pH 7.0). The suspension was homogenized with a Polytron at low speed, 3×15 sec. The homogenate was centrifuged at 8 700×g for 20 min and the supernatant was put on ice. The pellet was resuspended and homogenized with a Glass-teflon Potter by 5 strokes. The homogenate was centrifuged at 8 700×g for 10 min and this supernatant was combined with the first supernatant. The supernatant fluid was centrifuged at 35 000×g for 20 min, yielding a second pellet fraction that was suspended thoroughly in a glass homogenizer with a Teflon pestle in 20 ml/g of fresh tissue of Buffer B (20 mM Tris-maleate, 0.6M KCl, pH 6.8). The resulting suspension was centrifuged again at 35 000×g for 60 min. The third pellet fraction was resuspended thoroughly in a glass homogenizer with a Teflon pestle in 20 ml/g of fresh tissue of Buffer C (10 mM Tris/HCl buffer pH 7.4) followed with another centrifugation at 35 000×g for 60 min. The harvested precipitate was then suspended in a small volume (1-2 ml/g of fresh tissue) of 50 mM Tris/HCl buffer pH 7.4) containing 2 mM EGTA. The resulting membrane preparation was frozen at −80° C. Protein concentration was determined with bicinchoninic acid (BCA) method, using BSA as standard.
The iodination procedure was performed in the darkness. […] The reaction was started by adding 5 ul (3 nmol) of H2O2. The incubation was carried out at 22° C. for 5 min. The addition of H2O2 was repeated twice with 5 min incubation each time. The reaction was stopped with the addition of 1.4 ml of 0.1% TFA. The iodinated peptide was purified on a reverse-phase Vydac C18 column with a 60 min linear gradient (1 ml/min) from 20% to 50% acetonitrile (90%) in 0.1% TFA (10%).
Nonspecific binding was defined as binding not displaced by 50 μM corresponding peptide. All peptide containing solutions were diluted in Buffer B. Buffer A and B were degassed under vacuum, and used in capped tubes in order to minimize lipid peroxydation. Before the incubation period, all tubes were put under a low flow of nitrogen. All material was kept on ice and the binding assay was performed in darkness. After an incubation period of 60 min at 22° C. […] After centrifugation at 12 000×g for 15 minutes, the pellets were resuspended in 150 μl of sample buffer (62 mM Tris-HCl, pH 6.8, 2% SDS, 10% glycerol, 15% 2-mercapto-ethanol, and 0.05% bromophenol blue), and boiled for 5 min prior to being subjected to electrophoresis. Proteins (200 μg/100 μl) were separated on 7.5% SDS-PAGE (45 V overnight). The gels resulting from SDS/PAGE were fixed, colored in Coomassie Brilliant Blue R-250, dried, exposed to a storage phosphor intensifying screen (Amersham Biosciences), and analysed by using a Typhoon PhosphorImager (Amersham Biosciences) and ImageQuant 5.0 software to establish competition curves. Protein bands were quantified by densitometry. The covalent binding signal of 87 kDa was analyzed by densitometry using Typhoon Phospholmager™ (Typhoon, Amersham Biosciences) and ImageQuant 5.0® software to set competition curves.
Specific binding activities were defined as the ratio of the density of the protein band to that of a non-specific band. Results are expressed as the percentage of the density of the […] to that of the total binding band.

[1] = tested on: vascular sprouting of aortic endothelium (aortic rings); experiment: Inhibition of microvascular sprouting from Matrigel-embedded aortic explants; type: cell-based, mice; details: preliminary data; compared with GHRP-6
Source text: FIG. 1 illustrates disruption of vascular sprouting of aortic endothelium by azapeptide compound DBG178. Sprouting aortic endothelium (Von Willebrand factor positive) expressing CD36 is shown in the upper row of FIG. 1a. Vascular sprouting of aortic rings from C57BL/6 and CD36 null mice in the presence of DBG 178 at 10^−7M is shown in the lower row of FIG. 1a. Histograms of microvascular sprouts areas (mean±s.e.m) from aortic explants of C57BL/6 and CD36 null mice exposed to DBG concentrations from 10^−8 to 10^−6 M p<0.01 compared with control (Ctl) is shown in FIG. 1b.
Aortas were excised from 10-week-old male C57/Bl6+/+ and CD36−/− mice of C57/Bl6 background. The fibroadipose tissue was removed and aortas were sectioned into 2-mm-long cross-sections. The +/+ and −/− rings were covered by 50 μl of Matrigel and cultured for 4 days in EGM-2 medium (Clonetics Corp.). Explants were then exposed to vehicle alone or in presence of an azapeptide prototype DBG178 at the indicated concentrations (10^−8 to 10^−6 M) from day 4 to day 6 of culture in EGM-2 medium. Pictures of each individual explant were taken at day 4 and day 6 and EC growth was measured as the surface covered at day 6 minus the surface covered at day 4 Data were subject to analysis of variance (ANOVA) followed by Dunnet's post test to test for differences among groups. Outgrowing cells were characterized by double-labelling with monoclonal vWF antibody (1:100, Dako) and polyclonal CD36 (1:100, Santa Cruz) after acetone fixation using their respective alexa coupled secondary antibodies.

human GHS-R1a = human GHS-R1a (Homo sapiens (Human), UniProt Q92847); experiment: GHS-R1a binding assay, competition with 125I-ghrelin on membranes of LLC-PK1 cells expressing human GHS-R1a
human GHS-R1a, sequence (Q92847 whole entry): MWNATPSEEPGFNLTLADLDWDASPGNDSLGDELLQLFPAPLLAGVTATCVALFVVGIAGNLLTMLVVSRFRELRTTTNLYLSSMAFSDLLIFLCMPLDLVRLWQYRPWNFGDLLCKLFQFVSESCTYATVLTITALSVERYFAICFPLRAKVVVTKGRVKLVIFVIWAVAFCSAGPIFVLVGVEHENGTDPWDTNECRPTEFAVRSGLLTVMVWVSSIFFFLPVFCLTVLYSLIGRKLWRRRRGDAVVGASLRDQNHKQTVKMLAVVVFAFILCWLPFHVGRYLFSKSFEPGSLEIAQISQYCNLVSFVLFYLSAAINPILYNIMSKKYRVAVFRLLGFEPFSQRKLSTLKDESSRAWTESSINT

[2] = Table 6, read-out: IC50 Binding CD36
[3] = Table 5, read-out: IC50 Binding GHS-R1a

SMILES | IC50 (CD36; Table 3, rat cardiac membranes, [125I]Tyr-Bpa-Ala-hexarelin as radioligand, read-out: IC50, binding affinity of aza peptide derivatives towards CD36) [nM] | binding activity/affinity at CD36 in words (CD36) | ex vivo inhibition of neovascularization in aortic rings [1] | IC50 (human GHS-R1a; Table 4, LLCPK-1 membranes overexpressing GHS-R1a, radioiodinated (1-28) rat ghrelin as tracer, read-out: EC50 (text: IC50 values from competition curves in GHS-R1a radioreceptor assay)) [nM] | IC50 (CD36; [2]) [nM] | IC50 (human GHS-R1a; [3]) [nM] | binding affinity for GHS-R1a receptor in words (human GHS-R1a; compared with GHRP-6)
CC(C)CN(NC(=O)[C@@H](Cc1c[nH]c2ccccc12)NC(=O)[C@@H](N)Cc1cnc[nH]1)C(=O)N[C@@H](Cc1c[nH]c2ccccc12)C(=O)N[C@H](Cc1ccccc1)C(=O)N[C@@H](CCCCN)C(N)=O [DBG201-A, His-D-Trp-azaLeu-Trp-D-Phe-Lys-NH2] (H-H[dW][azaLeu]W[dF]K-NH2) | 2890 | retained significant activity similar to the parent peptide | most potent inhibitory effect | 1200 | – | – | –
C[C@H](N)C(=O)N[C@H](Cc1c[nH]c2ccccc12)C(=O)N[C@@H](C)C(=O)NN(Cc1ccc(O)cc1)C(=O)N[C@H](Cc1ccccc1)C(=O)N[C@@H](CCCCN)C(N)=O [ZS555-F40, Ala-D-Trp-Ala-azaTyr-D-Phe-Lys-NH2] (H-A[dW]A[azaTyr][dF]K-NH2) | – | without major change | – | – | 2950 | > 10000 | decreased drastically
C[C@H](NC(=O)[C@@H](Cc1c[nH]c2ccccc12)NC(=O)CCc1ccccc1)C(=O)NN(Cc1ccc(O)cc1)C(=O)N[C@H](Cc1ccccc1)C(=O)N[C@@H](CCCCN)C(N)=O [ZS556, Hydrocinnamyl-D-Trp-Ala-AzaTyr-D-Phe-Lys-NH2] (Hydrocinnamoyl-[dW]A[azaTyr][dF]K-NH2) | – | – | – | – | 32500 | > 10000 | –

Reference: patent US9708370B2, “Azapeptides as CD36 binding compounds” (VALORISATION-RECHERCHE, LIMITED PARTNERSHIP, priority 2007, dated 2017)
